# Reference: paper PMC8232621, “Antimicrobial Activity of a Library of Thioxanthones and Their Potential as Efflux Pump Inhibitors” (Pharmaceuticals, 2021)
# Like-named read-outs stand apart in the source and are kept apart here.
# Columns and labels:
# [1] = Cytotoxicity in NIH/3T3 cell line (MTT assay); format: cell-based; details: mouse, read-out: IC50 (µM) ± SD, cytotoxicity
# Experimental: Before each cytotoxicity assay using this cell line, cells were seeded in untreated 96-well flat-bottom microtiter plates, following a 4-hour incubation period in a humidified atmosphere (5% CO2, 95% air) at 37 °C [47]. […] Prior to the assay, the cells were seeded for 4 h using 1 × 10^4 cells/well. […] The plates were incubated for 24 h, after which a solution of MTT in PBS was added to each well and incubated for another 4 h. After this, 100 μL of SDS (10% in a 0.01 M HCl solution) was added to each well and incubated overnight at 37 °C. Doxorubicin was used as a positive control. Cell growth was determined in quadruplicate by measuring OD at λ = 540 nm (reference 630 nm) in a Multiscan EX ELISA reader (Thermo Labsystems, Cheshire, WA, USA). […] (2) 100−ODsample−ODmedium control/ODcell control−ODmedium control×100 […]
# E. coli SA/2 = assay: Synergy with cefotaxime (antibiotic MIC in presence of compound); format: cell-based
# Description: The referred library of thioxanthones was initially tested for their antimicrobial activity against six bacterial strains: the Gram-negative Escherichia coli ATCC 25922, Pseudomonas aeruginosa ATCC 27853 and Salmonella enterica serovar Typhimurium SL1344 (SE03), with the acrA gene deleted, and the Gram-positive Staphylococcus aureus ATCC 29213, Enterococcus faecalis ATCC 29212 and the methicillin and ofloxacin-resistant clinical isolate S. aureus 272123. For the synergy assay, two clinically relevant isolates were used: the extended-spectrum β-lactamase (ESBL)-producing E. coli SA/2 [23] and the vancomycin-resistant E. faecalis (VRE) B3/101 [23]. The antibiotics used were cefotaxime (CTX) and vancomycin (VAN), respectively.
# The combined effect of the compounds and clinically relevant antimicrobial drugs was evaluated by determining the antibiotic’s MIC in the presence of each compound. […] The antibiotic tested was serially diluted, whereas the concentration of each compound was kept fixed. […]
# Caco-2 cells = assay: Cytotoxicity in Caco-2 cells, neutral red (NR) uptake assay; format: cell-based, human; details: 24 h after exposure
# Experimental: Caco-2 cells were routinely cultured in 75 cm^2 flasks using DMEM with 4.5 g/L glucose supplemented with 10% FBS, 1% NEAA and 1% antibiotic. Cells were maintained at 37 °C, in a 5% CO2 and 95% air atmosphere, and the cell culture medium was changed every 2−3 days. Cultures were passaged weekly by trypsinization (0.25% trypsin/1 mM EDTA). In all experiments, the cells were seeded at a density of 60,000 cells/cm^2 and used three days after seeding, when confluence was reached. The cells used in all experiments were taken between the 55th and 64th passages.
# The compounds’ (0−20 μM) cytotoxicity was evaluated by the neutral red (NR) uptake and Sulforhodamine B (SRB) binding assays, 24 h after exposure. Caco-2 cells were seeded onto 96-well plates at a density of 60,000 cells/cm^2 and exposed, after reaching confluence (three days after seeding), to the compounds (0–20 μM), in a fresh cell culture medium. Triton™ X-100 (0.1%) was used as a positive control.
# The NR assay is based on the ability of viable cells to incorporate and bind the supravital dye NR into the lysosomes, thus providing a quantitative estimation of the number of viable cells in a culture. Twenty-four hours after exposure to the compounds, the cell culture medium was removed, followed by the addition of fresh cell culture medium containing 50 μg/mL NR, and incubation at 37 °C in a humidified 5% CO2 and 95% air atmosphere, for 90 min. After this incubation period, the cell culture medium was removed, the dye absorbed only by viable cells extracted with absolute ethyl alcohol/distilled water (1:1) with 5% acetic acid, and the absorbance measured at 540 nm in a multiwell plate reader (PowerWaveX BioTek Instruments, VT, USA). The percentage of NR uptake relatively to that of the control cells (0 µM) was used as the cytotoxicity measure. Five independent experiments were performed, in triplicate.
Structure (SMILES),IC50 at 24 h ([1]; NIH/3T3 mouse fibroblast cells) [µM],decrease in the MIC of CTX (E. coli SA/2) [fold],NR uptake (relative to control cells) (Caco-2 cells; 20 µM),other results
CCCOc1ccc(N2CCCCC2)c2c(=O)c3ccccc3sc12 [Compound 3],,,,IC50 at 24 h [1]: > 100 µM
"CCCOc1ccc(Nc2nc(C)cc(C)n2)c2c(=O)c3ccccc3sc12 [Compound 8, 1-[(4,6-Dimethylpyrimidin-2-yl)amino]-4-propoxy-9H-thioxanthen-9-one]",> 100,4,,
"CCCOc1ccc(NCCO)c2c(=O)c3ccccc3sc12 [Compound 10, 1-[(2-Hydroxyethyl)amino]-4-propoxy-9H-thioxanthen-9-one]",,4,,
"CCCOc1ccc(NS(=O)(=O)c2ccc(C(=O)O)cc2)c2c(=O)c3ccccc3sc12 [Compound 12, 4-[N-(9-Oxo-4-propoxy-9H-thioxanthen-1-yl)sulfamoyl]benzoic acid]",64.5 ± 4.54,16,,
"CCCOc1ccc(NS(=O)(=O)c2ccc(N)cc2)c2c(=O)c3ccccc3sc12 [Compound 13, 4-Amino-N-(9-oxo-4-propoxy-9H-thioxanthen-1-yl)benzenesulfonamide]",> 100,,no significant effect,NR uptake (relative to control cells) (Caco-2 cells; 10 µM): 95.5%
CCCOc1ccc2ncnc3c2c1Sc1ccccc1-3 [Compound 15],,,92.2%,
CCCOc1ccc2nc(N)nc3c2c1Sc1ccccc1-3 [Compound 16],,,94.1%,
CCCOc1ccc2nc(NCc3ccccc3Cl)nc3c2c1Sc1ccccc1-3 [Compound 17],> 100,,95.5%,
CCCOc1ccc2c3c(n/c(=N\c4ccccc4C)n2-c2ccccc2C)-c2ccccc2Sc13 [Compound 18],,4,,
